Measured values: article PMC6934184, “Selective DNA-PKcs inhibition extends the therapeutic index of localized radiotherapy and chemotherapy” (The Journal of Clinical Investigation, 2019)

Biological target: T1, TYK2 (Homo sapiens, UniProt P29597)
T1 construct: purchased Thermo Fisher Scientific (Life Technologies) SelectScreen
Assay: SelectScreen Z'LYTE
Assay type: biochemical
Procedure, shortened: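 SelectScreen broad panel; activity (Z'LYTE, Adapta) plus binding formats. ATP: Km app for CSF1R Z'LYTE; 10 for CAMK1 Adapta. Readout = % per kinase.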

T1 sequence (P29597 whole entry): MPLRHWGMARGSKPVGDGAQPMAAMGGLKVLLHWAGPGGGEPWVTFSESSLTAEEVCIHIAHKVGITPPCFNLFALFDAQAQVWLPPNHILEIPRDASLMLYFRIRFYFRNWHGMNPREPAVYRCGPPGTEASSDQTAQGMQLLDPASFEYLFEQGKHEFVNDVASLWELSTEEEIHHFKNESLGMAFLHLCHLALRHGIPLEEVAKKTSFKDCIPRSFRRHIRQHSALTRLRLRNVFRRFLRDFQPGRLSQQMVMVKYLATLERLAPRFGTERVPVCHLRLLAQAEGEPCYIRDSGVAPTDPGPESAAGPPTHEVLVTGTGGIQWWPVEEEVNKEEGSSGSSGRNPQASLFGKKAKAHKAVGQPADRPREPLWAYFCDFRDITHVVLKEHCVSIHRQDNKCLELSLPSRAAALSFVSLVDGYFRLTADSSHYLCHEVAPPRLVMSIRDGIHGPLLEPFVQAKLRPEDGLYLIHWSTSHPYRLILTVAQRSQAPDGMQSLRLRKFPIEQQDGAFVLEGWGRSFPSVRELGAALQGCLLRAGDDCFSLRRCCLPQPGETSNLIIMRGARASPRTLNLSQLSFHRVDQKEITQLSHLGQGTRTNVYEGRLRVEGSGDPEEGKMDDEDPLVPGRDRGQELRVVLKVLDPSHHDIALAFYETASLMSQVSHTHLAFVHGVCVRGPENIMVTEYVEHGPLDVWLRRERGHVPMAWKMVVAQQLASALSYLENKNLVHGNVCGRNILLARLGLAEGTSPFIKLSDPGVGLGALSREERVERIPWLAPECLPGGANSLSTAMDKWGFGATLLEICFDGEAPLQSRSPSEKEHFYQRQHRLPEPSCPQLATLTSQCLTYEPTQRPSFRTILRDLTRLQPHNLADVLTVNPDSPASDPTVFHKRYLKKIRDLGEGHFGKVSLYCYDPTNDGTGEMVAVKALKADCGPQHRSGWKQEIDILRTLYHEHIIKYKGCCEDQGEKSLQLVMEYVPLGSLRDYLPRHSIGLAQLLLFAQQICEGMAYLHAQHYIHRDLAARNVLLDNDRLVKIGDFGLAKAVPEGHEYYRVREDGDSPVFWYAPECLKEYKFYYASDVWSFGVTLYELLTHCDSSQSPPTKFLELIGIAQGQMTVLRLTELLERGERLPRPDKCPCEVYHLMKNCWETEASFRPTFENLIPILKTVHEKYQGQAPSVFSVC

CN(C(=O)CN1CCOCC1)c1ccc2sc3c(-c4cccc5c(=O)cc(N6CC7CCC(C6)O7)oc45)cccc3c2c1 [NU5455]
inhibition at 1 µM: 4.2%
